SMILES strings stand for the structures.

This assay deals with T1, EPAC2-CNBD (Homo sapiens, UniProt Q8WZA2).
T1 construct: gene RAPGEF4
T1 sequence (Q8WZA2 whole entry): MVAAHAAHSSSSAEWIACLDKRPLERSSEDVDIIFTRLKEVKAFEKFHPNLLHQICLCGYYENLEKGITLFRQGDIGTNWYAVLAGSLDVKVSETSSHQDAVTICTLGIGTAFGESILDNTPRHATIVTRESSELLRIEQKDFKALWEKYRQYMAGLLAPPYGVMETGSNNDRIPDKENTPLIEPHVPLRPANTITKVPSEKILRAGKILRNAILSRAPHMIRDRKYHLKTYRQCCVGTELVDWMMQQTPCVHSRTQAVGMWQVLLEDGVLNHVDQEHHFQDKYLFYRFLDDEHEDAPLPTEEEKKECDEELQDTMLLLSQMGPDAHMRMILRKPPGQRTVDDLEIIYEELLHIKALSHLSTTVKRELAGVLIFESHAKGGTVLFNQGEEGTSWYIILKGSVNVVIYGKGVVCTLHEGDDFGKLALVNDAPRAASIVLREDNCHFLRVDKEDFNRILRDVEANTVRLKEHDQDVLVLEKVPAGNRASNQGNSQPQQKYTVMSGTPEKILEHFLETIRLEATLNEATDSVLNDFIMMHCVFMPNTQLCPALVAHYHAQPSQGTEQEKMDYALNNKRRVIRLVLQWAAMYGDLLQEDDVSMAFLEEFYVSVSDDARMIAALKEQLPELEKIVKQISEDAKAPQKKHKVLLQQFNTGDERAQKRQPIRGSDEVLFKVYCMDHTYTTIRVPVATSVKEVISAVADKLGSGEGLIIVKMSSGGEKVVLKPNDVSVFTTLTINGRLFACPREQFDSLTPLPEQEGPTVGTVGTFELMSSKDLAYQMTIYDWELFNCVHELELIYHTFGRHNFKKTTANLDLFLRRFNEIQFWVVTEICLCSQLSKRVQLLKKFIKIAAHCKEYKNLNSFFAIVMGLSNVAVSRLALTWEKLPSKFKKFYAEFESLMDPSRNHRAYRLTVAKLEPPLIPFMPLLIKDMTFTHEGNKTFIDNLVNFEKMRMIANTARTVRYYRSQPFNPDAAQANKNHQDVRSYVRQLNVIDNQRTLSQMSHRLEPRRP
The assay is described as follows: biochemical. The following applies: 8-NBD-cAMP displacement, mean; read-out: Pharmacology assay data / EPAC2 pIC50 (mean) (converted). Also noted: 8-NBD-cAMP competition binding to GST-CNBD, fluorescence intensity 480/535 nm, dose response. The method, then:
8-(2-[7-nitro-4-benzofurazanyl] aminoethylthio) adenosine-3′,5′-cyclic monophosphate (8-NBD-cAMP) competition assays were performed with purified EPAC1-CNBD and EPAC2-CNBD GST-fusion proteins as previously described. Comparison of reference molecules, dose response curves (DRC) and pilot screens were done in black, low volume 384 assay plates (Greiner). Plates were incubated for 4 h before 8-NBD-cAMP fluorescence intensity at 480/535 nm (ex/em) was measured using the Envision multi-label plate reader (Perkin-Elmer; Waltham, MA, USA). EPAC1-CNBD (amino acids 169–318 of EPAC1) and EPAC2-CNBD (amino acids 304-453) cDNAs were previously sub-cloned into the multi-cloning site of the pGEX-6P-1 expression vector (GE Healthcare) by BC Bioscienes (Dundee, Scotland). Ral-GDS-RBD (amino acids 788-884) was cloned into pGEX-5X-1 as described. Recombinant EPAC1-CNBD, EPAC2-CNBD, EPAC1 (amino acids 149–881), Ral-GDS-RBD (amino acids 788-884), and Rap1B (amino acids 1–167) glutathione S-transferase (GST)-fusion proteins were then expressed and purified from BL-21 Escherichia coli, as previously described. Protein concentrations were determined by the bicinchoninic acid (BCA) assay or by Nanodrop 2000/2000c (Thermo Scientific). All recombinant proteins were determined to be pure by SDS-PAGE analysis. Proteins were stored in aliquots at −80 °C until required. Preliminary SAR on a benzofuran oxo-acetic acid series, based on SY000, was done using 8NBD-cAMP binding to EPAC1 and EPAC2 CNBDs, as summarized in the Supplementary Table, Supplementary Figures and Figure 4. […] Further alternatives to the R1 group (Figure S2), including reducing the linker length by a single [compound left out] […] In addition, N-methylation of the amide portion (ESC100960) also results in loss of activity. This could indicate a role for the NH as a hydrogen bond donor or that the substitution could adversely affect the conformation of the adjacent oxo-acetic acid group.
Regarding `Cc1ccc(C(=O)c2oc3ccc(CNC(=O)C(=O)O)cc3c2C(C)C)cc1` [SY009], the IC50 is 31.6 µM.
The figure for `Cc1c(C(=O)c2cccc(Br)c2)oc2ccc(CNC(=O)C(=O)O)cc12` [ESC1000906] is 7.94 µM; for `Cc1ccc(C(=O)c2oc3ccc(CNC(=O)C(=O)O)cc3c2C)cc1` [SY000] it is 7.94 µM; for `CCc1c(C(=O)c2ccc(C)cc2)oc2ccc(CNC(=O)C(=O)O)cc12` [SY007] it is 5.01 µM.
As for `Cc1ccc(C(=O)c2oc3ccc(CNC(=O)C(=O)O)cc3c2C(C)(C)C)cc1` [SY006], the figure is 22.4 µM.

For the origin of these results see PMC6912754, “Identification of A Novel Class of Benzofuran Oxoacetic Acid-Derived Ligands that Selectively Activate Cellular EPAC1” (Cells, 2019).
